One block for each compound: values may come before it.
How the values were obtained:
Sprague-Dawley rats = test: CFC with scopolamine challenge; format: in vivo, rat
[1] = multispecies hepatocyte stability, summary across species; format: in vitro ADME, rat, dog, monkey, human
Description: (§1) However, the hepatocyte stability of 7 was far better than 1 for rat, dog, and human and was therefore poised for further advancement of compound characterization.

[2] = Human Phase I; cited from earlier work
[3] = hepatocyte metabolite stability (monkey); format: in vitro ADME; conditions: Monkey hepatocytes, 4 h incubation of the parent PAM
Description: as §1

[4] = hepatocyte metabolite stability (human); format: in vitro ADME; conditions: Human hepatocytes, 4 h incubation of the parent PAM
Description: From this exercise, a single compound emerged, harboring a tertiary hydroxyl moiety at the 7-position of the indazole, VU6052254 (henceforth PAM 7).
as §1

[5] = dog MTD study and high-dose rat 14-day toxicology study; result in words; cited from earlier work
[6] = kinetic / aqueous solubility; format: physicochemical; conditions: result in words

Structure (SMILES): CN1[C@@H]2C[C@@H](OC(=O)[C@H](CO)c3ccccc3)C[C@H]1[C@@H]1O[C@@H]12 [scopolamine]
disruption of acquisition of CFC (Sprague-Dawley rats; 0.25 mg/kg IP, rat): ~65%
effect of scopolamine alone on acquisition of CFC (Sprague-Dawley rats; 0.26 mg/kg as printed, result in words): robust decrease in the acquisition of CFC

level of oxidative metabolite generated (label = metabolite) ([1]; across all four species (rat, dog, monkey, human hepatocytes)): > 23%
% Total Peak Area, oxidative metabolite (label = metabolite) [3]: 74.3%
% Total Peak Area, oxidative metabolite (label = metabolite) [4]: 34.9%
Structure (SMILES): Cn1cc2c(-c3cc(F)c(CN4C(=O)c5cccnc5C4O)c(F)c3)cccc2n1 (stereo not shown) [compound 2]
metabolite share of plasma AUC of total VU0467319 drug administered [2]: > 50%

level of oxidative metabolite generated (label = metabolite) ([1]; across species except for monkey): < 10%
% Total Peak Area, oxidative metabolite (label = metabolite) [3]: 21%
Structure (SMILES): [2H]C1(O)c2ncccc2C(=O)N1Cc1c(F)cc(-c2cccc3nn(C([2H])([2H])[2H])cc23)cc1F (stereo not shown) [compound 6]

Structure (SMILES): [2H]C1([2H])c2ncccc2C(=O)N1Cc1c(F)cc(-c2cccc3nn(C([2H])([2H])[2H])cc23)cc1F [compound 5]
amount of oxidative metabolism at high dose [5]: comparable to that of VU0467319 (1)
aqueous solubility [6]: low aqueous solubility

— PMC12715762, “Discovery of VU6052254: A Novel, Potent M1 Positive Allosteric Modulator” (ACS Chemical Neuroscience, 2025)
